# Measured values from patent US20250108038A1 (priority 2023, published 2025).
# Entries after “also recorded” stand apart in the source; their conditions may differ.
# Assays:
# [1] = Metabolic stability in human intestinal homogenate; format: in vitro ADME
# Procedure: The intestinal homogenate mixture solution was added to 96-well plates ([…]) in duplicate. […] Reaction was initiated by adding cofactor solution at 10 μL/well.
# The intrinsic clearances were calculated using the following equations: […]
# [2] = target: T1, OCT2 (Homo sapiens, UniProt O15244); assay: Uptake transporter inhibition assay, OCT2 (metformin)
# T1 sequence (O15244 1-555): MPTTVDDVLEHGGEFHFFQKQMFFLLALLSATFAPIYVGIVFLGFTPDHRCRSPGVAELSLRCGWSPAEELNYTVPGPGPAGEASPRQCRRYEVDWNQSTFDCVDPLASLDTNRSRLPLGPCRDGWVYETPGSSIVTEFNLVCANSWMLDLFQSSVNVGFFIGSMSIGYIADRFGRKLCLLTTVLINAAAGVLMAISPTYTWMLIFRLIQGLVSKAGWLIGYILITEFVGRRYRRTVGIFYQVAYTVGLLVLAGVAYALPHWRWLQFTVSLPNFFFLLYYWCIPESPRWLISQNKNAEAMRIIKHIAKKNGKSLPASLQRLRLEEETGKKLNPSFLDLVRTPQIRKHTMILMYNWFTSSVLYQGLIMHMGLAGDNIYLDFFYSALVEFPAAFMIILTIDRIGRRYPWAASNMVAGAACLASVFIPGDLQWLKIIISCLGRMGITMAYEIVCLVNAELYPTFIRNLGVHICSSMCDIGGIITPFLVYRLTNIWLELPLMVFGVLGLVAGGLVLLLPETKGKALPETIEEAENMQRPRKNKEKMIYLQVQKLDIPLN
# Procedure: (§1) Uptake experiments were performed using HEK293 cells stably expressing the respective uptake transporters. The assays were conducted according to the actual SOLVO uptake transporter assay protocols (PR-ASY-UPT-General Protocol for Uptake Transporter Inhibition Assays).
# (§2) Cells were cultured at 37° C. in a humidified atmosphere containing 5% CO2 and were plated onto standard 96-well tissue culture plates.
# (§3) Before the experiment, the medium was removed, and the cells were washed twice with 100 μL of pre-warmed (37° C.) assay buffer listed in Table 15. The cells were pre-incubated at 37° C. for 30 minutes in assay buffer containing the test article at appropriate concentrations (Table 16), appropriate solvents for solvent controls and the reference inhibitor for reference inhibitor wells. After the pre-incubation step solutions were removed. Uptake experiments were performed at 37° C. in 50 μL of assay buffer containing the probe substrate and the test article or solvent and controls.
# (§4) After the experiment, cells were washed twice with 100 μL of appropriate cold buffer and lysed with 150 μL scintillation cocktail. Radiolabeled probe substrate transport was determined by liquid scintillation counting.
# (§5) Uptake of the probe substrate in control cells provided background activity values for all data points.
# [3] = target: T2, OATP1B3 (Homo sapiens, UniProt Q9NPD5); assay: Uptake transporter inhibition assay, OATP1B3 (CCK-8); conditions: for Relative transporter specific accumulation: CCK-8, Table 120
# T2 sequence (Q9NPD5 1-702): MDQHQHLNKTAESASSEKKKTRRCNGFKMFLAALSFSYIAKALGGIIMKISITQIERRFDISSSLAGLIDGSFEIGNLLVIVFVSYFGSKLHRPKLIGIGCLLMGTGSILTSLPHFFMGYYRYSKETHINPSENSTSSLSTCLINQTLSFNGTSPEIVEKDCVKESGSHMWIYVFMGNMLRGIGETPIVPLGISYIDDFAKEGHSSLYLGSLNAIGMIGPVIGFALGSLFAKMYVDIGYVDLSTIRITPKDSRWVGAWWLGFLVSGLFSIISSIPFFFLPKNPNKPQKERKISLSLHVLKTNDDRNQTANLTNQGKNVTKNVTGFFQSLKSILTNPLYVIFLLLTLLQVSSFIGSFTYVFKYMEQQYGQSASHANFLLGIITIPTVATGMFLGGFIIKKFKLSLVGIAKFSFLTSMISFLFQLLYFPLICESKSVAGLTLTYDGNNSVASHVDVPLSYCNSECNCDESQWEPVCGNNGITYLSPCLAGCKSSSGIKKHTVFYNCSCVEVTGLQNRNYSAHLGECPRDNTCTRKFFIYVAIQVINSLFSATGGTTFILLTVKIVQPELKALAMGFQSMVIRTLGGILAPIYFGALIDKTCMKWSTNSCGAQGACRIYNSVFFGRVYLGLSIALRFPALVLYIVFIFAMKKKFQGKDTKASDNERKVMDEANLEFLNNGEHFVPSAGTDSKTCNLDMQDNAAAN
# Procedure: as §1, §2, §3, §4, §5
# [4] = 1 μM, 0.5 mg/mL homogenate, 1 mM NADPH
# [5] = 1 μM, NCF60 (60 min, no cofactors)
# [6] = 0.04 μM nominal, metformin, IC50 determination, Table 124
# [7] = 0.12 μM nominal, metformin, IC50 determination, Table 124
# [8] = 1.11 μM nominal, metformin, IC50 determination, Table 124
# [9] = 3.00 μM nominal, metformin, Table 123
# [10] = 10.00 μM nominal, metformin, IC50 determination, Table 124
# [11] = 30.00 μM nominal, metformin, IC50 determination, Table 124
# [12] = 30.00 μM nominal, metformin, Table 123
compound,measurement,setting,value
COCCOC1(c2ccc(Cl)cc2)c2ccccc2C2=NCCN21 (stereo not shown) [Compound I-4],Compound A formed (Aa/Ai),[1]; 0 min,0.46
same,% Remaining,"[1]; 1 μM, 0 min",100%
same,Aa/Ai Mean (n = 2),"[1]; 1 μM, 0 min",1.34
same,CLint(HIH),[1]; [4],8.40 µL/min/mg
same,T1/2,[1]; [4],2.75 h
same,% Remaining,"[1]; 1 μM, 5 min",97.6%
same,Aa/Ai Mean (n = 2),"[1]; 1 μM, 5 min",1.31
same,% Remaining,"[1]; 1 μM, 10 min",87.3%
same,Aa/Ai Mean (n = 2),"[1]; 1 μM, 10 min",1.17
same,% Remaining,"[1]; 1 μM, 20 min",88.0%
same,Aa/Ai Mean (n = 2),"[1]; 1 μM, 20 min",1.18
same,% Remaining,"[1]; 1 μM, 30 min",87.4%
same,Aa/Ai Mean (n = 2),"[1]; 1 μM, 30 min",1.17
same,% Remaining,"[1]; 1 μM, 60 min",75.8%
same,Aa/Ai Mean (n = 2),"[1]; 1 μM, 60 min",1.01
same,% Remaining,[1]; [5],80.4%
same,Aa/Ai Mean (n = 2),[1]; [5],1.08
same,Compound A formed (Aa/Ai),[1]; 5 min,0.54
same,Compound A formed (Aa/Ai),[1]; 10 min,0.50
same,Compound A formed (Aa/Ai),[1]; 20 min,0.51
same,Compound A formed (Aa/Ai),[1]; 30 min,0.58
same,Compound A formed (Aa/Ai),[1]; 60 min,0.50
same,Compound A formed (Aa/Ai),"[1]; NCF60 (60 min, no cofactors)",0.69
"OC1(c2ccc(Cl)cc2)c2ccccc2C2=NCCN21 (stereo not shown) [Compound A, 5-(4-chlorophenyl)-2,3-dihydroimidazo[1,2-b]isoindol-5-ol, reference compound]",IC50,[2],3.49 µM
same,Relative transporter specific accumulation,[2]; [6],109.28 ± 6.45 % of control
same,Transporter specific accumulation,[2]; [6],259.00 ± 13.36 cpm
same,Relative transporter specific accumulation,[2]; [7],106.33 ± 3.85 % of control
same,Transporter specific accumulation,[2]; [7],252.00 ± 5.57 cpm
same,Relative transporter specific accumulation,[2]; [8],84.39 ± 4.06 % of control
same,Transporter specific accumulation,[2]; [8],200.00 ± 7.72 cpm
same,Relative transporter specific accumulation,[2]; [9],51.42 ± 3.71 % of control
same,Transporter specific accumulation,[2]; [9],150.67 ± 6.96 cpm
same,Relative transporter specific accumulation,[2]; [10],25.88 ± 3.39 % of control
same,Transporter specific accumulation,[2]; [10],61.33 ± 7.84 cpm
same,Relative transporter specific accumulation,[2]; [11],9.42 ± 0.99 % of control
same,Transporter specific accumulation,[2]; [11],22.33 ± 2.26 cpm
same,Relative transporter specific accumulation,[2]; [12],13.54 ± 1.38 % of control
same,Transporter specific accumulation,[2]; [12],39.67 ± 3.38 cpm
same,inhibition at 10 µM,"[2]; human, Maximum % inhibition, OCT2, HEK293 cells, metformin (10 μM), NIO: no inhibition observed",91%
same,inhibition at 0.04 μM,"[2]; human, Relative Inhibition, 0.04 μM nominal, metformin, IC50 determination, Table 124",-9%
same,inhibition at 0.12 μM,"[2]; human, Relative Inhibition, 0.12 μM nominal, metformin, IC50 determination, Table 124",-6%
same,inhibition at 1.11 μM,"[2]; human, Relative Inhibition, 1.11 μM nominal, metformin, IC50 determination, Table 124",16%
same,inhibition at 10 µM,"[2]; human, Relative Inhibition, 10.00 μM nominal, metformin, IC50 determination, Table 124",74%
same,inhibition at 30 μM,"[2]; human, Relative Inhibition, 30.00 μM nominal, metformin, IC50 determination, Table 124",91%
same,inhibition at 3 μM,"[2]; human, Relative inhibition, 3.00 μM nominal, metformin, Table 123",49%
same,inhibition at 30 μM,"[2]; human, Relative inhibition, 30.00 μM nominal, metformin, Table 123",86%
same,Relative transporter specific accumulation,[3]; 3.00 μM nominal,92.81 ± 3.95 % of control
same,Relative transporter specific accumulation,[3]; 30.00 μM nominal,90.63 ± 4.66 % of control
same,maximum inhibition of OATP1B3-mediated CCK-8 accumulation,"[3]; 2-concentration assay, up to 100 μM (Compound A up to 30 μM)",did not inhibited; also recorded: not an in vitro inhibitor
same,Maximum % inhibition,"[3]; OATP1B3, HEK293 cells, CCK-8 (1 μM), NIO: no inhibition observed",NIO
same,inhibition at 3 μM,[3]; human,7%
same,inhibition at 30 μM,[3]; human,9%
